In patent US20140309291A1, “Compositions and Methods for Increasing Stress Resilience” (The Children's Hospital of Philadelphia, priority 2011, published 2014):

Tests used:
[1] = social defeat paradigm (defeat latency); format: in vivo, rats; details: SL (short latency, vulnerable) animals; drug given 1 hour prior to social defeat stress on 3 days following 7 days of defeat; p=0.0726 (FIG. 2A)
Source text: The social defeat paradigm used in these studies was modified from the resident-intruder model (Miczek, K. A. (1979) Psychopharmacology (Berl) 60:253-259). Rats were randomly assigned to either a social defeat or control group for a consecutive 7 days (Bhatnagar et al. (2006) J. Neuroendocrinol., 18:13-24; Buwalda et al. (1999) J. Neuroendocrinol., 11:513-520). During each episode of social stress, a rat was placed into the home cage territory of an unfamiliar Long-Evans resident previously screened for high aggression (Bhatnagar et al. (2006) J. Neuroendocrinol., 18:13-24; Buwalda et al. (1999) J. Neuroendocrinol., 11:513-520). […] After defeat, a wire mesh enclosure was placed in the cage to prevent physical contact between the resident and intruder but allowing visual, auditory, and olfactory contact for the remainder of the 30-minute defeat session. Latency to assume a submissive posture (defeat) was recorded and averaged over the seven daily defeat exposures. […] Rats were returned to their home cage after each session, and body weight was recorded on days 1 and 8. […]
Following 7 days of defeat, the SL and LL groups were divided into two separate treatment groups receiving either vehicle or FTY720, 1 hour prior to social defeat stress on the following 3 days. Defeat latencies were recorded. […]

[2] = social interaction test of anxiety after social defeat stress; format: in vivo, rats
Method: Animals were exposed to 7 days of social defeat stress. During these 7 days of defeat stress the average latency to defeat was observed. Based on this latency to defeat, animals were either classified as short latency (SL, defeat <300 seconds) or long latency (LL, defeat >300 seconds).
Following 7 days of defeat, the SL and LL groups were divided into two separate treatment groups receiving either vehicle or FTY720, 1 hour prior to social defeat stress on the following 3 days. Defeat latencies were recorded. Additionally, 48 hours following the end of social defeat stress, animals were tested in the social interaction test of anxiety.

S1P3 receptor = S1P3 receptor (Homo sapiens, UniProt Q99500); details: multiple Sph receptors, including the S1P3 receptor; cited from earlier work
Sequence of S1P3 receptor (Q99500 whole entry): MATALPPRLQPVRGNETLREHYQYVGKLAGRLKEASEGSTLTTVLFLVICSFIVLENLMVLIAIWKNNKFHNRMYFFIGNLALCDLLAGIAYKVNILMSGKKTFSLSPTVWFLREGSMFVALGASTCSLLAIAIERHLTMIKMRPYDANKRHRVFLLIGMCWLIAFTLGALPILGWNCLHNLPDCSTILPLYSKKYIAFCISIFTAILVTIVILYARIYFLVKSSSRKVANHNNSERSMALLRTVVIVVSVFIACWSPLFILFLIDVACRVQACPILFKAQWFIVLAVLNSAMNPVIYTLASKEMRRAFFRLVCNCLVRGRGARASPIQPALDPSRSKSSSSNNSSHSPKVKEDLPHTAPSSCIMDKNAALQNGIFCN

With CCCCCCCCc1ccc(CCC(N)(CO)CO)cc1 [FTY720] the defeat latency [1] was “tended to increase defeat latency of SL animals to the level of LL animals”, the social interaction time ([2]; SL animals, tested 48 hours following the end of social defeat stress, p=0.0049 (FIG. 2B)) was “prevented the decreased interaction time” and the “effect of the drug in resilient and control animals” value ([2]; resilient LL rats or control rats) was “no effects”. For the same compound, the “agonist activity at Sph receptors” value (S1P3 receptor) was “potent agonist”.
